# Test results published in ChEMBL document CHEMBL3352746, “Synthesis and anticancer activity of quinopimaric and maleopimaric acids’ derivatives” (Bioorg Med Chem, 2014).
# The source made the active and inactive calls. No cut-off for these calls is given here.
# What was measured:
# MDA-MB-435 = assay: Growth inhibition of human MDA-MB-435 cells; format: functional
# NCI60 = assay: Cytotoxicity against human NCI60 cells assessed as cell growth at 10 uM; format: functional
# Malme-3M = assay: Growth inhibition of human MALME-3M cells; format: functional
# [1] = Growth inhibition of human SF539 cells; format: functional
# [2] = Growth inhibition of human UACC62 cells; format: functional
# [3] = Growth inhibition of human OVCAR5 cells; format: functional
# [4] = Growth inhibition of human EKVX cells; format: functional
# [5] = Growth inhibition of human BT549 cells; format: functional
# Mus musculus [6] = assay: Toxicity in mouse P388 cells implanted mouse assessed as mean spleen weight at 40 mg/kg, ip dosed daily for 5 days administered 24 hrs after tumor implantation; format: organism-based; design: dose 40 mg/kg, route intraperitoneal; conditions: in vivo
# [7] = Growth inhibition of human OVCAR4 cells; format: functional, OVCAR-4
# Mus musculus [8] = assay: Toxicity in mouse P388 cells implanted mouse assessed as mean ascites volume at 20 mg/kg, ip dosed daily for 5 days administered 24 hrs after tumor implantation; format: organism-based; design: dose 20 mg/kg, route intraperitoneal; conditions: in vivo
# [9] = Growth inhibition of human HOP92 cells; format: functional
# [10] = Growth inhibition of human RXF393 cells; format: functional
# Mus musculus [11] = assay: Toxicity in mouse P388 cells implanted mouse assessed as mouse mortality at 10 mg/kg, ip dosed daily for 5 days administered 24 hrs after tumor implantation; format: organism-based; design: dose 10 mg/kg, route intraperitoneal; conditions: in vivo
# TK-10 = assay: Growth inhibition of human TK10 cells; format: functional
# [12] = Growth inhibition of human UACC257 cells; format: functional
# [13] = Antitumor activity against mouse CA-755 cells implanted in mouse assessed as tumor growth inhibition at 40 mg/kg, ip dosed daily for 5 days measured 5 days after treatment termination; format: functional; conditions: CA-755, ip, 120 h, route intraperitoneal, read-out: TGI
# [14] = read-out: pLC50 (the source's name) (converted)
structure (smiles),measurement,setting,value
COC(=O)[C@]1(C)CCC[C@]2(C)[C@H]3C[C@H]4C(C(C)C)=C[C@]3(CC[C@H]21)[C@@H]1/C(=N/O)CC/C(=N\O)[C@@H]14,GI50,MDA-MB-435,4.9 µM
same,CC50,MDA-MB-435; [14],95.5 µM
same,TGI,MDA-MB-435; read-out: pTGI (converted),23.4 µM
same,Activity,NCI60,Active
same,GI50,Malme-3M,5.89 µM
same,CC50,Malme-3M; [14],50.1 µM
same,TGI,Malme-3M; read-out: pTGI (converted),20 µM
same,GI50,[1]; SF-539,9.12 µM
same,CC50,"[1]; SF-539, read-out: pLC50 (the source's name) (converted)",46.8 µM
same,TGI,"[1]; SF-539, read-out: pTGI (converted)",21.4 µM
same,GI50,[2]; UACC-62,4.68 µM
same,CC50,"[2]; UACC-62, read-out: pLC50 (the source's name) (converted)",67.6 µM
same,TGI,"[2]; UACC-62, read-out: pTGI (converted)",22.4 µM
same,GI50,[3]; OVCAR-5,5.62 µM
same,CC50,"[3]; OVCAR-5, read-out: pLC50 (the source's name) (converted)",63.1 µM
same,TGI,"[3]; OVCAR-5, read-out: pTGI (converted)",20 µM
same,GI50,[4],3.72 µM
same,CC50,[4]; [14],79.4 µM
same,TGI,[4]; read-out: pTGI (converted),18.2 µM
same,GI50,[5]; BT-549,3.55 µM
same,CC50,"[5]; BT-549, read-out: pLC50 (the source's name) (converted)",36.3 µM
same,TGI,"[5]; BT-549, read-out: pTGI (converted)",11.2 µM
same,Activity,Mus musculus [6],212 mg
same,GI50,[7]; OVCAR-4,3.55 µM
same,CC50,"[7]; OVCAR-4, read-out: pLC50 (converted)",> 100 µM
same,TGI,"[7]; OVCAR-4, read-out: pTGI (converted)",19.1 µM
same,Activity,Mus musculus [8],0.57 mL
same,GI50,[9]; HOP-92,2.09 µM
same,CC50,"[9]; HOP-92, read-out: pLC50 (the source's name) (converted)",39.8 µM
same,TGI,"[9]; HOP-92, read-out: pTGI (converted)",5.01 µM
same,GI50,[10]; RXF 393,2.14 µM
same,CC50,"[10]; RXF 393, read-out: pLC50 (the source's name) (converted)",8.91 µM
same,TGI,"[10]; RXF 393, read-out: pTGI (converted)",4.37 µM
same,Activity,Mus musculus [11],Non-toxic
same,GI50,TK-10,9.12 µM
same,CC50,TK-10; [14],56.2 µM
same,TGI,TK-10; read-out: pTGI (converted),22.9 µM
same,GI50,[12]; UACC-257,3.63 µM
same,CC50,"[12]; UACC-257, read-out: pLC50 (the source's name) (converted)",38.9 µM
same,TGI,"[12]; UACC-257, read-out: pTGI (converted)",12 µM
same,inhibition in vivo at 40 mg/kg,[13],72%
